# Results taken from article PMC137065 (Journal of Biology, 2002).
# Several values for one entry are separate records, joined by “and”; a condition that tells them apart may be missing. Equal values may be shown once. Read-outs that look alike come from different tables or passages of the source.
# Assays:
# Hh signaling = assay: luciferase-based reporter assay of Hh signaling in C3H10T1/2 cells; type: cell-based; conditions: for inhibition of Hh protein-activated versus agonist-activated cells: Hh protein (10 nM) or Hh-Ag 1.2 (200 nM); for effect on pathway activation by the agonist: cells activated by Hh-Ag 1.2 (200 nM)
# murine Smo = murine Smo (Mus musculus, UniProt P56726); assay: filtration membrane-binding assay, Smo-containing membranes from 293T cells
# [1] = target: murine Smo W539L (Smo^act) (Mus musculus, UniProt P56726, W539L); assay: filtration membrane-binding assay, Smo^act-containing membranes
# HA-tagged Smo = HA-tagged Smo (Mus musculus, UniProt P56726); assay: whole cell/immunocomplex binding assay, Smo-transfected 293T cells; conditions: unlabeled competitor at 5 μM, 37°C, 2 hours
# Smo^act-expressing cells = conditions: ref [11],[17]; cited from earlier work
# [2] = Smo^wt, competition with [3H]-Hh-Ag 1.5 (0.4 nM)
# [3] = Smo^act, competition with [3H]-Hh-Ag 1.5 (0.4 nM)
# Sequence of HA-tagged Smo (P56726 33-793): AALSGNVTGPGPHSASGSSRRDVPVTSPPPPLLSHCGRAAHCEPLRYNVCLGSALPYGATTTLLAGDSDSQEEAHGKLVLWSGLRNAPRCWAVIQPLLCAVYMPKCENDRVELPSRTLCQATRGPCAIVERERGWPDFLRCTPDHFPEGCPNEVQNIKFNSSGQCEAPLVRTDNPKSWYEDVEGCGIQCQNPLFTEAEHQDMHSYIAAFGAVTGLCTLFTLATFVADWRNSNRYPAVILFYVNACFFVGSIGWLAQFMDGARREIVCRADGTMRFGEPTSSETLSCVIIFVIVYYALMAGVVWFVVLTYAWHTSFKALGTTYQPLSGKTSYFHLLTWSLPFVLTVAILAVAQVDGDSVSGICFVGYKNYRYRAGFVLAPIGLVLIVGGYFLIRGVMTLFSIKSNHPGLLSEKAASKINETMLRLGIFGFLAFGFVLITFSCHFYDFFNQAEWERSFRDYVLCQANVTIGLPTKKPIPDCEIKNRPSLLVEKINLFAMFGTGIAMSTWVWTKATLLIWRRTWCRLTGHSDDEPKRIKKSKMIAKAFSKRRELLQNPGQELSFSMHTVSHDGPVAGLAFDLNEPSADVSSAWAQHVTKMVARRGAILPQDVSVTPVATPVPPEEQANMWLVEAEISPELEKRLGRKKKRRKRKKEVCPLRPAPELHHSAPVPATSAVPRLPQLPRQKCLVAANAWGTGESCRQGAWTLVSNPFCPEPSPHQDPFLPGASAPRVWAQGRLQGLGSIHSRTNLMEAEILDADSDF
# Sequence of murine Smo (P56726 33-793): as above
# Sequence of murine Smo W539L (Smo^act) (P56726 33-793 W539L): as the sequence (P56726 33-793) above, with W507L counted along it
compound,measurement,setting,value
C[C@H]1CC[C@]2(NC1)O[C@H]1C[C@H]3[C@@H]4CC[C@H]5C[C@@H](O)CC[C@]5(C)[C@H]4CC[C@]3(C)[C@H]1[C@@H]2C [tomatadine],Hh signaling activity,Hh signaling; described in words,inactive
C=C[C@@]1(C)CC(=O)[C@]2(O)[C@@]3(C)[C@@H](O)CCC(C)(C)[C@@H]3[C@H](O)[C@H](OC(C)=O)[C@@]2(C)O1 [forskolin],inhibition of Hh protein-activated versus agonist-activated cells,Hh signaling,identical inhibition curves
same,effect on pathway activation by the agonist,Hh signaling,inhibitory
CC1=C2C[C@H]3[C@@H](CC=C4CC(=O)CC[C@@]43C)[C@@H]2CC[C@]12O[C@@H]1C[C@H](C)CN(CCNC(=O)CCCCCNC(=O)CCc3ccccc3)[C@H]1[C@H]2C [KAAD-cyclopamine],Ki,murine Smo,5.8 nM
same,competition of [3H]-Hh-Ag 1.5 (2 nM) binding,murine Smo,significantly compete
same,inhibition of Hh protein-activated versus agonist-activated cells,Hh signaling,Identical results
same,Ki,[1],38.3 nM
same,Ki on Smo^act- compared to Smo^wt-containing membranes,[1],seven-fold higher
same,competition of [3H]-Hh-Ag 1.5 (5 nM) binding,HA-tagged Smo,significantly compete
same,potency on Smo^act-expressing cells,Smo^act-expressing cells,decreased potency
CC1=C2C[C@H]3[C@@H](CC=C4C[C@@H](O)CC[C@@]43C)[C@@H]2CC[C@]12O[C@@H]1C[C@H](C)CN[C@H]1[C@H]2C [cyclopamine],inhibition of Hh protein-activated versus agonist-activated cells,Hh signaling,differ in their sensitivity
COc1cccc(CN(C(=O)CC(C)(C)C)[C@H]2C[C@@H](C(=O)N3CCNCC3)N(Cc3ccc4c(c3)OCO4)C2)c1 [Cur61414],Ki,murine Smo; [2],44 nM
same,competition of [3H]-Hh-Ag 1.5 (2 nM) binding,murine Smo; competitor at 10 μM,significantly compete
same,inhibition of Hh protein-activated versus agonist-activated cells,Hh signaling,differ in their sensitivity
same,effect on pathway activation by the agonist,Hh signaling,inhibitory
same,Ki on Smo^act- compared to Smo^wt-containing membranes,[1],seven-fold higher
same,Ki,[1]; [3],309 nM
same,competition of [3H]-Hh-Ag 1.5 (5 nM) binding,HA-tagged Smo,significantly compete
same,potency on Smo^act-expressing cells,Smo^act-expressing cells,decreased potency
CNC1CCC(N(Cc2cccc(-c3ccncc3)c2)C(=O)c2sc3c(F)ccc(F)c3c2Cl)CC1 (stereo not shown) [Hh-Ag 1.5],Ki,murine Smo; [2],0.52 nM and ~0.5 nM
same,Kd,"murine Smo; saturation binding, approximately 45 hours at 37°C, one-site model",0.37 nM
same,competition of [3H]-Hh-Ag 1.5 (2 nM) binding,murine Smo; unlabeled competitor at 2 μM,completely competed out
same,EC50,Hh signaling; cell-based reporter assay,~1 nM and 1 nM
same,increase of potency by chemical modification,Hh signaling; relative to Hh-Ag 1.1,over 1000 fold
same,Ki,[1]; [3],~0.5 nM
same,affinity for Smo^act,"[1]; kinetic and saturation binding assay, data not shown",affinity identical to that of Smo^wt
same,competition of [3H]-Hh-Ag 1.5 (5 nM) binding,HA-tagged Smo,complete absence of counts in the immunocomplex
CC1=C2C(=O)[C@H]3[C@@H](CC=C4C[C@@H](O)CC[C@@]43C)[C@@H]2CC[C@]12O[C@@H]1C[C@H](C)CN[C@H]1[C@H]2C [jervine],inhibition of Hh protein-activated versus agonist-activated cells,Hh signaling,Identical results
